Consider 14 molecules from ChEMBL document CHEMBL1909046, “DrugMatrix in vitro pharmacology data”.

Data set [1] is described as follows: DRUGMATRIX: Calcium Channel Type L, Phenylalkylamine radioligand binding (ligand: [3H] (-)-Desmethoxyverapamil (D-888)). Format: cell membranes, Rattus norvegicus, Wistar, Brain, Membrane. Conditions: Not Active = under 50% inhibition at 10 µM.
Data set [2] concerns the target 5-hydroxytryptamine receptor 4 (Cavia porcellus, UniProt O70528). Format: cell membranes, Dunkin-Hartley, Striatum, Membrane. Note: in other assays of this panel Not Active means under 50% inhibition at 10 µM.
Data set [3] is described as follows: DRUGMATRIX: Nicotinic Acetylcholine radioligand binding (ligand: [125I] Epibatidine). Conditions: imr-32; Not Active = under 50% inhibition at 10 µM. The data set is classed as cell membranes, Membrane.
A short description of data set [4]: DRUGMATRIX: Calcium Channel Type L, Benzothiazepine radioligand binding (ligand: [3H] Diltiazem). Format: cell membranes, Rattus norvegicus, Wistar, Brain, Membrane. Conditions: Not Active = under 50% inhibition at 10 µM.
The target of data set [5] is T1, Alpha-2A adrenergic receptor (Homo sapiens, UniProt P08913). Note: in other assays of this panel Not Active means under 50% inhibition at 10 µM.
T1 sequence (P08913 whole entry): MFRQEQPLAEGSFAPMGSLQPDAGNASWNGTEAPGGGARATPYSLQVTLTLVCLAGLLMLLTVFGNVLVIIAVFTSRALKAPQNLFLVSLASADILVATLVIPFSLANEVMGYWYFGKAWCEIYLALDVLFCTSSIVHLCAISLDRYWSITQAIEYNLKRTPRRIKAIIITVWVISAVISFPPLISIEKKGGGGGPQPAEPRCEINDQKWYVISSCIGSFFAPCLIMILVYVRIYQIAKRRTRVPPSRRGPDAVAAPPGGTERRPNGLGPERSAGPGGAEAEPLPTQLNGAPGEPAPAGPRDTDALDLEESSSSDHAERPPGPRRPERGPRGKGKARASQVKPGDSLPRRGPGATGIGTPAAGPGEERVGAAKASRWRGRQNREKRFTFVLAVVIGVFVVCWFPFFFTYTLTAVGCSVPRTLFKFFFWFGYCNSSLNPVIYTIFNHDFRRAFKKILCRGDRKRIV
Format: cell membranes, Sf9, Membrane. Conditions: sf9.

The nature of data set [6]: DRUGMATRIX: Purinergic P2X radioligand binding (ligand: [3H] alpha, beta-Methylene-ATP). Format: cell membranes, Oryctolagus cuniculus, New Zealand albino, Urinary bladder, Membrane. Conditions: Not Active = under 50% inhibition at 10 µM.
The target of data set [7] is T2, Cytochrome P450 2A6 (Homo sapiens, UniProt P11509). Note: in other assays of this panel Not Active means under 50% inhibition at 10 µM.
T2 sequence (P11509 whole entry): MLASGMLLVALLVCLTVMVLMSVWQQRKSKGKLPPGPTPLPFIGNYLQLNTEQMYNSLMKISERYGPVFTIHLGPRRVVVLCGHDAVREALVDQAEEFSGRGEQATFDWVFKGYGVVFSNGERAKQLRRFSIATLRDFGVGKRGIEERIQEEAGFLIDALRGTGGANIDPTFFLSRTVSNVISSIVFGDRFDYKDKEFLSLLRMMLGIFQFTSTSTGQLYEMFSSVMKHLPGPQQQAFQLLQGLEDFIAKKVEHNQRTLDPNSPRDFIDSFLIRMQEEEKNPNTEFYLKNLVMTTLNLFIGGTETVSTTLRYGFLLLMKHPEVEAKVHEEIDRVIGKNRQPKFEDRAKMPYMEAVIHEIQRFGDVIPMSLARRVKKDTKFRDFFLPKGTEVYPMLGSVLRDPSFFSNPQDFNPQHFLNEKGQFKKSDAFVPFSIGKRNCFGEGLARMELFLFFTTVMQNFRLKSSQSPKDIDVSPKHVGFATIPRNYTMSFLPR
Conditions: bti-tn-5b1-4.

Chain of 5-hydroxytryptamine receptor 4 (O70528 whole entry): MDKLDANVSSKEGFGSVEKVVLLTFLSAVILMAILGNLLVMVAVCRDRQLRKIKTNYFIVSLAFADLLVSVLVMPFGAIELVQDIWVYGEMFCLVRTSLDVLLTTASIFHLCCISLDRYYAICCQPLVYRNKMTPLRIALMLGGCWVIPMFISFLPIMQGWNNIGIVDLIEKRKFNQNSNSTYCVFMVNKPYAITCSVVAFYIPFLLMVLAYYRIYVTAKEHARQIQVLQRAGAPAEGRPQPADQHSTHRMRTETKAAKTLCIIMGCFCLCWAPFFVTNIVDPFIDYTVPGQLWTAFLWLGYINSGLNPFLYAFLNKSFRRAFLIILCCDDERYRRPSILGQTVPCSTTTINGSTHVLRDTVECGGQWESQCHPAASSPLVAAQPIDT

`CCOc1nc2cccc(C(=O)O)c2n1Cc1ccc(-c2ccccc2-c2nnn[nH]2)cc1`: the IC50 entry in data set [1], in data set [2], in data set [3], in data set [4], in data set [5] and in data set [6] was “Not Active” throughout. In data set [7], the IC50 (commonly the concentration that gives 50% inhibition) was “Not Active”. Moreover, the Ki result in data set [1], in data set [3], in data set [4], in data set [6] and in data set [7] was “Not Active” each time.
As for `O=C(O)CCCc1cccs1`, the 50% inhibitory concentration (IC50) result in data set [1], in data set [2], in data set [3], in data set [4], in data set [5] and in data set [6] was “Not Active” throughout. In data set [7], the IC50 entry was “Not Active”. The Ki result in data set [1], in data set [3], in data set [4], in data set [6] and in data set [7] was “Not Active” throughout.
In the case of `COc1ccccc1N`, the IC50 result in data set [1], in data set [2], in data set [3], in data set [4], in data set [5] and in data set [6] was “Not Active” in each case. In addition, the IC50 entry in data set [7] is listed as “Not Active”. Further, the Ki entry in data set [1], in data set [3], in data set [4], in data set [6] and in data set [7] was “Not Active” each time.
`O=C(c1ccccc1F)N1CCC(Cc2ccccc2)CC1`: the IC50 entry in data set [1], in data set [2], in data set [3], in data set [4], in data set [5] and in data set [6] was “Not Active” throughout. In data set [7], the IC50 entry was “Not Active”. The Ki entry in data set [1], in data set [3], in data set [4], in data set [6] and in data set [7] was “Not Active” each time.
Regarding `Cc1c(O)cccc1C(=O)N[C@@H](CSc1ccccc1)[C@H](O)CN1C[C@H]2CCCC[C@H]2C[C@H]1C(=O)NC(C)(C)C`, the IC50 was 18.4 µM in data set [1] (read-out: IC50); “Not Active” in data set [2]; “Not Active” in data set [3]; 14.6 µM in data set [4] (read-out: IC50); “Not Active” in data set [5]; “Not Active” in data set [6]. Moreover, the IC50 result in data set [7] is on record as “Not Active”. Further, the Ki (commonly a dissociation constant, usually derived from enzyme kinetics or from competition with a known ligand) in data set [1] (read-out: Ki) is 17.9 µM; in data set [3], “Not Active”; in data set [4] (read-out: Ki), 13 µM; in data set [6], “Not Active”; in data set [7], “Not Active”.
For `CC(O)COC[C@H]1O[C@@H]2O[C@H]3[C@H](O)[C@@H](O)[C@@H](O[C@H]4[C@H](O)[C@@H](O)[C@@H](O[C@H]5[C@H](O)[C@@H](O)[C@@H](O[C@H]6[C@H](O)[C@@H](O)[C@@H](O[C@H]7[C@H](O)[C@@H](O)[C@@H](O[C@H]8[C@H](O)[C@@H](O)[C@@H](O[C@H]1[C@H](O)[C@H]2O)O[C@@H]8COCC(C)O)O[C@@H]7COCC(C)O)O[C@@H]6COCC(C)O)O[C@@H]5COCC(C)O)O[C@@H]4COCC(C)O)O[C@@H]3COCC(C)O` (stereo partly drawn) [2-HYDROXYPROPYL-BETA-CYCLODEXTRIN], the IC50 entry in data set [1], in data set [2], in data set [3], in data set [4], in data set [5] and in data set [6] was “Not Active” each time. In addition, the IC50 entry in data set [7] is given as “Not Active”. In addition, the Ki result in data set [1], in data set [3], in data set [4], in data set [6] and in data set [7] was “Not Active” in each case.
For `NC(=O)c1cccc(N)c1` [3-AMINOBENZAMIDE], the IC50 entry in data set [1], in data set [2], in data set [3], in data set [4], in data set [5] and in data set [6] was “Not Active” in each case. The IC50 result in data set [7] is “Not Active”. For the same molecule, the inhibitory constant (Ki) result in data set [1], in data set [3], in data set [4], in data set [6] and in data set [7] was “Not Active” in each case.
`C[C@H]1O[C@H](O[C@H]2[C@H](O)[C@@H](O)[C@@H](O[C@H]3[C@H](O)[C@@H](O)C(O)O[C@@H]3CO)O[C@@H]2CO)[C@H](O)[C@@H](O)[C@@H]1N[C@H]1C=C(CO)[C@@H](O)[C@H](O)[C@H]1O` (stereo not given in full) [ACARBOSE]: the IC50 entry in data set [1], in data set [2], in data set [3], in data set [4], in data set [5] and in data set [6] was “Not Active” each time. Besides, in data set [7], the IC50 result is recorded as “Not Active”. The Ki result in data set [1], in data set [3], in data set [4], in data set [6] and in data set [7] was “Not Active” throughout.
Turning to `CC[C@H]1[C@@H]2C[C@H]3[C@@H]4N(C)c5ccccc5[C@]45C[C@@H]([C@@H]2[C@H]5O)N3[C@@H]1O` [AJMALINE], the IC50 entry in data set [1], in data set [2], in data set [3], in data set [4], in data set [5] and in data set [6] was “Not Active” each time. The IC50 entry in data set [7] is listed as “Not Active”. Also, the Ki result in data set [1], in data set [3], in data set [4], in data set [6] and in data set [7] was “Not Active” throughout.
Take `NC12CC3CC(CC(C3)C1)C2` [AMANTADINE]: the IC50 entry in data set [1], in data set [2], in data set [3], in data set [4], in data set [5] and in data set [6] was “Not Active” throughout. Also, the Ki result in data set [1], in data set [3], in data set [4] and in data set [6] was “Not Active” each time.
Regarding `NCCCNCCSP(=O)(O)O` [AMIFOSTINE], the IC50 result in data set [1], in data set [2], in data set [3], in data set [4], in data set [5] and in data set [6] was “Not Active” each time. For the same molecule, in data set [7], the half-maximal inhibitory concentration (IC50) entry was “Not Active”. Besides, the Ki entry in data set [1], in data set [3], in data set [4], in data set [6] and in data set [7] was “Not Active” each time.
For `CC(=O)OCC(=O)[C@@]12OC(C)(C)O[C@@H]1C[C@H]1[C@@H]3C[C@H](F)C4=CC(=O)C=C[C@]4(C)[C@@]3(F)[C@@H](O)C[C@@]12C` [FLUOCINONIDE], the IC50 result in data set [1], in data set [2], in data set [3], in data set [4], in data set [5] and in data set [6] was “Not Active” in each case. The inhibitory constant (Ki) entry in data set [1], in data set [3], in data set [4] and in data set [6] was “Not Active” in each case.
Turning to `N[C@@H](Cn1ccc(=O)c(O)c1)C(=O)O` [L-MIMOSINE], the IC50 result in data set [1], in data set [2], in data set [3], in data set [4], in data set [5] and in data set [6] was “Not Active” throughout. In addition, the Ki result in data set [1], in data set [3], in data set [4] and in data set [6] was “Not Active” throughout.
Turning to `C[C@@H]1C/C=C/C=C/C=C/C=C/[C@H](O[C@@H]2O[C@H](C)[C@@H](O)[C@H](N)[C@@H]2O)C[C@@H]2O[C@](O)(C[C@@H](O)C[C@H]3O[C@@H]3/C=C/C(=O)O1)C[C@H](O)[C@H]2C(=O)O` [NATAMYCIN], the concentration for half-maximal inhibition (IC50) result in data set [1], in data set [2], in data set [3], in data set [4], in data set [5] and in data set [6] was “Not Active” in each case. Moreover, the Ki entry in data set [1], in data set [3], in data set [4] and in data set [6] was “Not Active” each time.
